Experimental data as given in patent US12251449B2, “Synthetic multidomain peptide biomaterials that inhibit inducible nitric oxide synthase” (William Marsh Rice University, priority 2019, dated 2025).
Values joined by “and” are separate entries in the source; they are usually repeats but may differ in a detail not shown here. Equal values may be shown once. “Also recorded” adds a separate entry of the source. *1 amine or outer side, *2 acyl side, *3 side chain or, on linkers, in order; H or OH if unused. Where a SMILES comes first, the peptide text is derived from it. [ ]: non-standard residue; d: D form. X1 = CC(=N)NCCCC[C@H](N[*:1])C(=O)[*:2]

What was measured:
[1] = Oscillatory rheology of peptide hydrogels; format: physicochemical; conditions: hydrogel at 1 wt. % in HBSS with sucrose
Experimental: Oscillatory rheology. Peptide hydrogels were analyzed for their mechanical properties by oscillatory rheology using a TA Instruments AR-G2 rheometer (TA Instruments, New Castle, DE). Samples of 150 μL of 1 wt. % MDP hydrogels were prepared 24 hours prior to use for rheology, to allow full equilibration of the material. Gel samples were then transferred from a cut syringe onto the rheometer stage equipped with a 12 mm stainless-steel parallel plate set to a […] gap height. The following program was used to monitor the storage modulus (G′) and loss modulus (G″) under various conditions as has been previously published (Li & Hartgerink, 2017). Strain sweep analysis was performed using an applied strain of 0.01-200% at a frequency of 1 rad/s. Frequency sweep analysis was performed under 1% strain at 0.1-100 rad/s. Shear recovery analysis was performed by subjecting the peptide sample to 1% strain for 20 min, then 200% for 1 min, and finally 1% for 20 min, allowing for disruption of the hydrogel and monitoring of G′ and G″ recovery.

[2] = Live-dead viability of RAW 264.7 cells on MDP hydrogels; format: cell-based, mouse; conditions: mouse, RAW 264.7 cells cultured on peptide hydrogel (2-D culture); RAW macrophages on 1 wt. % hydrogel, after three days; read-out: cell survival
Experimental: (§1) Cell culture. For in vitro experiments, mouse RAW 264.7 cells (ATCC TIB-71) were grown in DMEM media supplemented with 10% Heat-Inactivated Fetal Bovine Serum (HI-FBS), L-glutamine, sodium pyruvate, and 1% penicillin-streptomycin. Cells were cultured at 37° C. with 5% CO2 and subcultured using scraping.
(§2) For 2-D culture live-dead viability studies, peptide hydrogels were pipetted into 0.4 cm^2 wells of Lab-Tek 16 well glass chamber slides (Thermo Fischer, Rochester, NY). Gels were pipetted to produce 70 μL pucks with a thickness of 1.75 mm. The gels were carefully pipetted into the bottom of each well and tapped before shear recovery to create flat gel profiles. After pipetting, the samples were allowed to shear recover for 5-10 min before adding 200 μL cell media and 10,000 RAW 264.7 cells. For each experiment time point (days 1 and 3) separate slides with duplicate gels were created. The cell media was changed every 2 days, taking care to not disturb or dislodge the gel material.
(§3) At each desired time point the following procedure was used to stain the cells for live-dead analysis. Live-dead staining solution was prepared in DPBS (Thermo Fisher Scientific, Rockford, IL) with 2 μM Calcein AM (Life Technologies), 4 μM Ethidium homodimer (Life Technologies), and 5 μg/mL Hoechst 33342 (BD Biosciences, San Jose, CA). Cell media was removed from the top of the hydrogel samples, which were then washed with PBS. Samples were then stained with 100 μL of prepared solution by incubating at 37° C. with 5% CO2 for 60 min while protected from light. After staining, the gels were removed from the glass chamber slides and placed in PBS before immediately imaging by confocal. Gels were analyzed by z-stack imaging using a Nikon A1 Confocal Microscope with a 40× water objective (405 nm blue channel laser, 488 nm green channel laser, 561 nm red channel laser). Image processing was done using NIS Elements, and Imaris Cell Counting software was used to quantify live-dead percentages.

RAW 264.7 cells = test: as above; format: cell-based, mouse; conditions: RAW macrophages on 1 wt. % hydrogel, one to three days
Experimental: as §1, §2, §3

VEGF = test: Serum VEGF ELISA in mice bearing B16-F0 melanoma tumors; format: in vivo; conditions: 5 days after single 100 μL intratumoral injection
Experimental: Evaluation of in vivo VEGF reduction using murine B16-F0 melanoma tumor model. C57BL/6J male mice were purchased from The Jackson Laboratory. […] All experiments were performed with approval of IACUC at Baylor College of Medicine (BCM) and followed established protocols. B16-F0 melanoma cell line was purchased from American Type Culture Collection (ATCC) and maintained according to manufacturer instructions (DMEM high-glucose with 10% fetal bovine serum and 1% penicillin/streptomycin). C57BL/6J mice were injected subcutaneously (s.c.) with 3×10^5 B16-F0 cells in a single flank. Once tumors became palpable (day 7 post-inoculation) mice were injected intratumorally (i.t.) with either vehicle buffer control Hank's Balanced Salt Solution (HBSS), free L-NIL dissolved in HBSS at 20 mM, K2-MDP hydrogel at 1 wt. % (5.6 mM peptide), or L-NIL-MDP hydrogel at 1 wt. % (5.2 mM peptide, or approximately 20 mM L-NIL functional groups). All injections were done using 100 μL total injection volume.
Mice were euthanized 5 days following i.t. injections and tumor/blood were collected. […] VEGF quantification of undiluted serum was performed using a mouse VEGF Quantikine ELISA kit (R&D Systems, Minneapolis, MN) following manufacturer's instructions. […] Statistical differences were evaluated using Tukey's multiple comparisons test. […]

[3] = IgG release kinetics from hydrogels; format: physicochemical; conditions: compared with alginate and K2-MDP
Source text: Whether the drug-mimicking L-NIL-MDP hydrogel could effectively load and control the delivery of IgG compared to other biomaterials was investigated.

[4] = prior studies (Leach et al., 2019); cited from earlier work

In the case of CC(=N)NCCCC[C@H](NC(=O)[C@H](CCCCNC(C)=N)NC(=O)[C@H](CC(C)C)NC(=O)[C@H](CO)NC(=O)[C@H](CC(C)C)NC(=O)[C@H](CO)NC(=O)[C@H](CC(C)C)NC(=O)[C@H](CO)NC(=O)[C@H](CC(C)C)NC(=O)[C@H](CO)NC(=O)[C@H](CC(C)C)NC(=O)[C@H](CO)NC(=O)[C@H](CC(C)C)NC(=O)[C@H](CO)NC(=O)[C@H](CCCCNC(C)=N)NC(=O)[C@H](CCCCNC(C)=N)NC(C)=O)C(N)=O [L-NIL-MDP] (Ac-[X1][X1]SLSLSLSLSLSL[X1][X1]-NH2), the “loss modulus (G″)” value [1] is reported as 20-25 Pa and ~25 Pa, the “storage modulus (G′)” value [1] is reported as 260-300 Pa and ~300 Pa and the viability at 72 h, 1 wt. % [2] is reported as about 95%. For the same molecule, the “cell attachment, survival and proliferation (in words)” value (RAW 264.7 cells) was “highest degrees of cell attachment and proliferation”, the “reduction of systemic VEGF levels (in words)” value (VEGF) was “significantly reduced systemic VEGF levels; also recorded: Significant VEGF reduction” and the “control of IgG release (in words)” value [3] was “able to control the release of IgG more effectively”. The “hydrogel observable post injection” value [4] was 21 days.
